Test results reported in paper PMC11300601, “Zurletrectinib is a next-generation TRK inhibitor with strong intracranial activity against NTRK fusion-positive tumours with on-target resistance to first-generation agents” (British Journal of Cancer, 2024).

Molecular target: T1, TRKB (Homo sapiens, UniProt Q16620)
T1 construct: purchased SignalChem Biotech Inc (Richmond, BC, Canada)
Assay: In vitro HTRF kinase assay, recombinant TRKB
Assay type: biochemical
Details: WT, read-out: IC50 against TRKB recombinant kinase
Method: Recombinant kinases were purchased from SignalChem Biotech Inc (Richmond, BC, Canada). In vitro kinase assays were performed following the optimization of the HTRF Kinase Assay (Cisbio). […] ATP concentrations ranged from 1 to 10 µM based on internal optimization.

T1 sequence (Q16620 32-822): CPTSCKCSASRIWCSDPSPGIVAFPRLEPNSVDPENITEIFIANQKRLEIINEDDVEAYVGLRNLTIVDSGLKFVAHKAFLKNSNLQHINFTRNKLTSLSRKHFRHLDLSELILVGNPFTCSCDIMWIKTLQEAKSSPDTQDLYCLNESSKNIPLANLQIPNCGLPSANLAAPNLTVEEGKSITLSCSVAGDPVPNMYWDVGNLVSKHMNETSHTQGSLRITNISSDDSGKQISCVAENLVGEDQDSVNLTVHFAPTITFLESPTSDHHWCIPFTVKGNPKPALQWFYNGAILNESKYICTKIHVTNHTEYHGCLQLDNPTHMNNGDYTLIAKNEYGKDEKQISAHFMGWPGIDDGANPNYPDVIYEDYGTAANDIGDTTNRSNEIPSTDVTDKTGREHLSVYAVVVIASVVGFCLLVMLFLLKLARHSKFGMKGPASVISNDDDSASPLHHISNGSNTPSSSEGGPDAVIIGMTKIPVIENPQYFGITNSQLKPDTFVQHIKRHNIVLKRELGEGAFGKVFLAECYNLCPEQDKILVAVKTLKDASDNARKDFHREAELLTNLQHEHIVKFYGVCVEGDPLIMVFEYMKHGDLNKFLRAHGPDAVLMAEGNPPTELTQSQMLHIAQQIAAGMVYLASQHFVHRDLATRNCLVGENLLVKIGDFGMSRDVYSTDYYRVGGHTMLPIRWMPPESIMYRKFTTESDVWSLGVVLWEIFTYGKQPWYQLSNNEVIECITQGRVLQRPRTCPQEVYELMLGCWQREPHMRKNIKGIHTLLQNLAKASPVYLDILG

zurletrectinib
IC50: 0.145 nM
